In patent US20190015650A1, “MICRONEEDLE TATTOO PATCHES AND USE THEREOF” (Massachusetts Institute of Technology, priority 2017, published 2019):

Assays:
[1] = Chemical stability of dyes: hydrogen peroxide and pH; assay type: physicochemical
Method: Additional evaluations on the dyes to withstand oxidative stress were tested by submerging the dye in 3 mM or 3 micromolar hydrogen peroxide, and compared for signal before and after such treatment (FIG. 9B). 23 fluorophores were tested.
The pH stability of the dyes was evaluated by submerging in different pH ranging from 1 to 13 (FIG. 9C). 17 fluorophores were tested.

[2] = Photostability of dyes exposed to compact fluorescent (CFL) bulb; assay type: physicochemical
Method: Dyes were prepared in solution (1 mM) or suspension (1 mg/mL) and exposed to light from a compact fluorescent (CFL) bulb (FIG. 9A). 55 fluorophores were tested including organic, encapsulated organic, inorganic, inorganic nanoparticle, tattoo, and semiconducting polymer dots.

Compound	Performance: chemical stability [1]	Performance: photostability [2]
CCN1/C(=C/C=C/C=C/C2=[N+](CCCCCC(=O)O)c3ccc(S(=O)(=O)O)cc3C2(C)C)C(C)(C)c2cc(S(=O)(=O)[O-])ccc21 [CY5]	Poor chemical stability	Poor photostability
CCN1C(=CC=CC=CC=CC2=[N+](CCCCCC(=O)O)c3ccc(S(=O)(=O)O)cc3C2(C)C)C(C)(C)c2cc(S(=O)(=O)[O-])ccc21 [CY7]	Poor chemical stability	Poor photostability
CCCN1/C(=C/C=C2\CCCC(/C=C/C3=[N+](CCC)c4ccccc4C3(C)C)=C2Cl)C(C)(C)c2ccccc21.[I-] [IR780]	Poor chemical stability	Poor photostability

Continued, values first:

Performance: chemical stability [1]	Performance: photostability [2]	Compound
	Poor photostability	O=C1OC2(c3ccc(O)cc3Oc3cc(O)ccc32)c2ccccc21 [Fluorescein]
	Poor photostability	Rhodamine
